Patent US11884961B2, “DNA-glycan conjugates and methods of use” (GEORGIA STATE UNIVERSITY RESEARCH FOUNDATION, INC., priority 2017, dated 2024)

What was measured:
[1] = tested on: VK9, a mouse IgG anti-Globo H monoclonal antibody; assay: ELISA of DEGL (glycan-DNA codes coated with Pierce DNA coating solution) against VK9; format: binding; settings: glycan-DNA conjugates coated directly onto plastic; OD450
Excerpt: (§1) Initially we validated the selected system with the conventional ELISA to confirm the antibody binding capacity and specificity of the glycans. Since sugars have low binding affinity for unmodified plastic surfaces, the binding protein, streptavidin, was used to capture biotinylated sugars. In another experiment we also tested DEGL using ELISA to see the effect of different presentation of glycans. For this assay, we coated the DEGL onto plastic surfaces directly. Both naked glycan and DEGL was tested against VK9, a mouse IgG anti-Globo H monoclonal antibody. […] We rationalize this difference in pattern to the different presentation of glycan epitope, all of the four glycans have the same terminal epitope of Fuc a1-2 Gal(b1-3 GalNAc), which is recognized by VK9 antibodies,[38] but a long DNA tag on the DEGL will give more space to the glycan antigens binding with the antibody, while normal ELISA would block the binding of the short glycans of Bb3 and Bb2. […]
(§2) A 96-well plate (Costar® Polystyrene High Binding Plate 3590) was coated with […] of 10 ug/ml Streptavidin (Sigma) in 0.01 M PBS (pH 7.4) at 4° C. overnight. […] The plate was then read at OD450 with a plate reader (PerkinElmer®, 2030 Multilabel Reader Victor®). The result was calculated by minus OD450 value of control (no antibody).

[2] = tested on: VK9, a mouse IgG anti-Globo H monoclonal antibody; assay: ELISA of biotinylated glycans captured on streptavidin against VK9; format: binding; settings: biotinylated sugars captured on streptavidin; OD450
Excerpt: as §1, §2

VK9 antibody = assay: Multiplex detection of DEGL against VK9 antibody by NGS; format: binding, mouse
Description: Next, we wanted to translate the results to more promising NGS based parallel screening. Initially we tested the different concentrations of DEGL with different concentrations of VK9 antibody using the PCR and qPCR assays. We incubated 1 uM, 500 nM, 100 nM and 10 nM samples with 0.5 μL, 1 μL, and 2 μL of the VK9 antibody (0.5 μg/μL), and unbound glycans were washed out after precipitating the bound glycan-VK9 complex on protein A/G beads. Each assay was compared to the same amount of DEGL with no VK9 negative control. Then, washed beads were used as the template for the NGS analysis. Briefly, beads were diluted to 20 μL, and from this, 2 μL was used for the initial PCR amplification (18 cycles). PCR products were then purified using AMpure beads (Beckman Coulter) according to the manufacturer's protocol and used for the NGS fusion PCR to incorporate the index codes and ion-torrent NGS adapters. Now about 150 bp DNA codes, it was again purified using AMpure beads, and all barcoded samples were run through an Agilent Bioanalyzer for quality control. Samples were then pooled in equimolar concentration and adjusted to the desired 26 pM for the NGS, analyzed using ion-PGM semiconductor sequencer. Data were analyzed using ‘FASTAPTAMER’ software,[39] and an in house developed program. […]

Globo-H [GbH]
ELISA binding of VK9 [1]: strong binding | ELISA binding intensity of VK9 [2]: very high binding intensities | relative enrichment in comparison with the no VK9 negative control (VK9 antibody; biotin tagged secondary antibody, magnetic streptavidin beads, NGS): enriched | enrichment (NGS) (VK9 antibody; modified method with control sequence added after selection, Globo-H series+A and B glycan DEGL): selective enrichment
